Experimental data: US20130029981A1, “COMPOUNDS, COMPOSITIONS, AND METHODS FOR CONTROLLING BIOFILMS” (Katholieke Universiteit Leuven, priority 2009, published 2013)
Read-outs that look alike come from different tables or passages of the source.

How the values were obtained:
[1] = tested on: S. Typhimurium ATCC14028; test: Bioscreen assay: influence on planktonic growth curve; assay type: cell-based, Salmonella Typhimurium; parameters: key: x: no influence on the planktonic growth at the IC50 for biofilm inhibition; ∘: planktonic growth is retarded at the IC50 for biofilm inhibition; details: planktonic growth at the IC50 for biofilm inhibition, 25° C.
From the text: (§1) Some of the tested compounds show a concentration range in which biofilm formation is inhibited but no effect on planktonic growth is observed. These compounds are particularly interesting for prevention of biofilm formation since the development of resistance against these compounds is less likely. Table 8 indicates whether the different compounds have an effect on the planktonic growth of the bacteria at the IC50 for biofilm inhibition. To construct Table 8, the effect of the tested compounds on the growth curve of the bacteria was determined at a concentration equal to the IC50 for biofilm inhibition, by using the Bioscreen system available from Oy Growth Curves Ab Ltd). The Bioscreen device from Oy Growth Curves Ab Ltd was used for measuring the influence of the chemical compounds on the planktonic growth of Salmonella Typhimurium and Pseudomonas aeruginosa. The Bioscreen is a computer controlled incubator/reader/shaker that uses 10×10 well microtiter plates and measures light absorbance of each well at a specified wave length in function of time. An overnight culture of S. […] The broth used was TSB 1/20 for the experiments at 16° C. and 25° C. For experiments at 37° C. CFA medium was used for S. […] As a control 3 μl of the appropriate solvent (DMSO or EtOH) was also added to the plate in 3- or 4-fold. The microtiter plate was incubated in the Bioscreen device at 16° C., 25° C. or 37° C. for at least 36 hours, with continious medium shaking. The absorbance of each well was measured at 600 nm each 15 minutes. Excel was used to generate the growth curves for treated the treated wells and the untreated control wells. Some of the compounds show a concentration range in which biofilm formation is inhibited but no effect on the planktonic growth is observed. Table 14 indicates if the different compounds have an effect on the planktonic growth of the bacteria at the IC50 for biofilm inhibition. To construct this table the effect of the compounds on the growth curve of the bacteria was determined at a concentration equal to the IC50 for biofilm inhibtion, by using the Bioscreen system from Oy Growth Curves Ab Ltd.

[2] = tested on: Pseudomonas aeruginosa PA14; test: Static peg assay for prevention of biofilm formation (Calgary device, crystal violet); assay type: cell-based
Outline: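 P. aeruginosa PA14 overnight TSB culture diluted 1:100 into broth with two-fold compound dilutions, biofilms grown 24 h static on polystyrene pegs of a Calgary device at 25 °C (TSB 1/20), 30 °C or 37 °C (CFA and/or LBNS). Biofilm quantified by crystal violet, extracted with 30% acetic acid, A570.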

[3] = tested on: Pseudomonas aeruginosa PA14; test: Bioscreen assay: influence on planktonic growth curve; assay type: cell-based; parameters: key: x: no influence on the planktonic growth at the IC50 for biofilm inhibition; ∘: planktonic growth is retarded at the IC50 for biofilm inhibition; details: planktonic growth at the IC50 for biofilm inhibition, 25° C.
From the text: as §1, with “Table 14 indicates if the different compounds have an effect on the planktonic growth of the bacteria at the IC50 for biofilm inhibition.” left out

[4] = tested on: Pseudomonas aeruginosa PA14; test: as above; assay type: cell-based; parameters: key: x: no influence on planktonic growth at the IC50 for biofilm inhibition; planktonic growth is retarded at the IC50 for biofilm inhibition; details: planktonic growth at the IC50 for biofilm inhibition, 25° C.
From the text: Some of the tested compounds show a concentration range in which biofilm formation is inhibited but no effect on planktonic growth is observed. These compounds are particularly interesting for prevention of biofilm formation since the development of resistance against these compounds is less likely. Table 8 indicates whether the different compounds have an effect on the planktonic growth of the bacteria at the IC50 for biofilm inhibition. To construct Table 8, the effect of the tested compounds on the growth curve of the bacteria was determined at a concentration equal to the IC50 for biofilm inhibition, by using the Bioscreen system available from Oy Growth Curves Ab Ltd). The Bioscreen device from Oy Growth Curves Ab Ltd was used for measuring the influence of the chemical compounds on the planktonic growth of Salmonella Typhimurium and Pseudomonas aeruginosa. The Bioscreen is a computer controlled incubator/reader/shaker that uses 10×10 well microtiter plates and measures light absorbance of each well at a specified wave length in function of time. An overnight culture of S. […] The absorbance of each well was measured at 600 nm each 15 minutes. […] To construct this table the effect of the compounds on the growth curve of the bacteria was determined at a concentration equal to the IC50 for biofilm inhibtion, by using the Bioscreen system from Oy Growth Curves Ab Ltd.

[5] = tested on: S. Typhimurium ATCC14028; test: as above; assay type: cell-based, Salmonella Typhimurium; parameters: key: x: no influence on planktonic growth at the IC50 for biofilm inhibition; planktonic growth is retarded at the IC50 for biofilm inhibition; details: planktonic growth at the IC50 for biofilm inhibition, 25° C.
From the text: as §1, with “Table 14 indicates if the different compounds have an effect on the planktonic growth of the bacteria at the IC50 for biofilm inhibition.” left out

[6] = tested on: S. Typhimurium ATCC14028; test: as above; assay type: cell-based, Salmonella Typhimurium; details: 400 μM
From the text: as §1

[7] = 25° C., Table 12, read-out: IC50 (biofilm formation)
[8] = 25° C., Table 14, read-out: IC50 biofilm inhibition
[9] = 25° C., Table 18, read-out: P. aeruginosa IC50 (biofilm formation)
[10] = 37° C., read-out: IC50 (biofilm formation)

Question: Which results are given for `CCCCCCN1c2nccc[n+]2CC1(O)c1ccc([N+](=O)[O-])cc1.[Br-]` (stereo not shown) [Compound 34]?
Answer: Influence on growth [1]: x; IC50 ([2]; 25° C., 24 hours, Table 15, read-out: (2) IC50 (biofilm inhibition)): 10.9 µM; IC50 ([2]; 25° C., Table 16, read-out: P. aeruginosa IC50 (biofilm formation)): 12.4 µM

Question: `OC1(c2ccc(Cl)cc2)C[n+]2cccnc2N1C1CCCCC1.[Br-]` (stereo not shown) [Compound 64] was tested. Which Influence on growth [3] did it give?
Answer: Its Influence on growth is “x”.

Question: What about the Influence on growth [1] of the same compound?
Answer: Its Influence on growth is “x”.

Question: And the IC50 [2, 7]?
Answer: Its IC50 is 4.94 µM.

Question: And the IC50 [2, 8]?
Answer: Its IC50 is 4.94 µM.

Question: What about the IC50 [2, 9] of the same compound?
Answer: Its IC50 is 10 µM.

Question: Which results are given for `O=[N+]([O-])c1ccc(C2(O)C[n+]3cccnc3N2C2CCCCCCCCCCC2)cc1.[Br-]` (stereo not shown) [Compound 69]?
Answer: IC50 [2, 7]: 6.32 µM; IC50 [2, 8]: 6.32 µM; IC50 [2, 9]: 6.9 µM; IC50 [2, 10]: 18.2 µM; Influence on growth [4]: ∘; Influence on growth [5]: ∘

Question: Which results are given for `OC1(c2ccc(I)cc2)C[n+]2cccnc2N1Cc1ccccc1.[Br-]` (stereo not shown) [Compound 73]?
Answer: Influence on growth [3]: x; Influence on growth [1]: x; IC50 [2, 7]: 8.61 µM; IC50 [2, 8]: 8.61 µM; IC50 [2, 10]: 175 µM; Effect on growth at 400 μM [6]: ∘

Question: `OC1(c2ccc(-c3ccccc3)cc2)C[n+]2cccnc2N1C1CCCC1.[Br-]` (stereo not shown) [R1=Cyclopentyl, R3=4-biphenylyl, R4=H, 1-cyclopentyl-2-hydroxy-2-(4-biphenylyl)-2,3-dihydro-1H-imidazo[1,2-a]pyrimidin-4-ium bromide] was tested. Which Influence on growth [3] did it give?
Answer: Its Influence on growth is “x”.

Question: And the Influence on growth [1]?
Answer: The Influence on growth was “x”.

Question: What about the IC50 ([2]; Pseudomonas aeruginosa, PA14, 25° C., Table 12, read-out: IC50 (biofilm formation)) of the same compound?
Answer: Its IC50 is 1.57 µM.

Question: And the IC50 ([2]; Pseudomonas aeruginosa, PA14, 25° C., Table 14, read-out: IC50 biofilm inhibition)?
Answer: The IC50 was 1.57 µM.

Question: And the IC50 ([2]; Pseudomonas aeruginosa, PA14, 37° C., read-out: IC50 (biofilm formation))?
Answer: Its IC50 is 62.1 µM.
